Laboratory results taken from ChEMBL document CHEMBL4265999, “Design, Synthesis, and Characterization of Novel Small Molecules as Broad Range Antischistosomal Agents” (ACS Med Chem Lett, 2018).

Columns and labels:
[1] = system: Schistosoma mansoni; assay: Antischistosomal activity against Schistosoma mansoni infected in golden syrian hamster assessed as worm killing at 143 uM pretreated for 45 mins followed by compound washout measured after 14 days; assay type: functional
[2] = system: Schistosoma haematobium; assay: Antischistosomal activity against Schistosoma haematobium infected in golden syrian hamster assessed as worm killing at 143 uM pretreated for 45 mins followed by compound washout measured after 14 days; assay type: functional
[3] = system: Schistosoma japonicum; assay: Antischistosomal activity against Schistosoma japonicum infected in golden syrian hamster assessed as worm killing at 143 uM pretreated for 45 mins followed by compound washout measured after 14 days; assay type: functional
[4] = Dissociation constant, pKa of the compound; assay type: physicochemical
[5] = Lipophilicity, log D of the compound; assay type: physicochemical; conditions: octanol/water

Row | Compound | Activity [1] | Activity [2] [%] | further results
1 | O=[N+]([O-])c1cc(NC2CCCN(Cc3ccccn3)C2)ccc1CO (stereo not given) | 0% |  | 
2 | O=[N+]([O-])c1ccc(CN2CCC(Nc3ccc(CO)c([N+](=O)[O-])c3)C2)cc1 (stereo not given) | 17% |  | 
3 | O=[N+]([O-])c1cc(NC2CCN(Cc3cccc(C(F)(F)F)c3)C2)ccc1CO (stereo not given) | 93% | 8 | 
4 | O=[N+]([O-])c1cc(NC2CCN(Cc3ccc(C(F)(F)F)cc3)CC2)ccc1CO | 81% | 0 | 
5 | O=[N+]([O-])c1cc(NC2CCCNC2)ccc1CO (stereo not given) | 50% |  | 
6 | O=[N+]([O-])c1cc(NC2CCN(Cc3ccccn3)C2)ccc1CO (stereo not given) | 0% |  | 
7 | O=[N+]([O-])c1cc(NC2CCCN(Cc3ccccc3)C2)ccc1CO (stereo not given) | 60% |  | 
8 | O=[N+]([O-])c1cc(NC2CCN(Cc3ccccc3C(F)(F)F)C2)ccc1CO (stereo not given) | 27% |  | 
9 | O=[N+]([O-])c1cc(NC2CCN(Cc3ccc(C(F)(F)F)cc3)C2)ccc1CO (stereo not given) | 100% | 10 | 
10 | O=[N+]([O-])c1cc(NC2CCCN(Cc3ccc(OC(F)(F)F)cc3)C2)ccc1CO (stereo not given) | 40% | 43 | Activity [3]: 10%
11 | O=[N+]([O-])c1cc(NC2CCN(Cc3ccccc3)C2)ccc1CO (stereo not given) | 75% |  | 
12 | COc1ccccc1CN1CCC(Nc2ccc(CO)c([N+](=O)[O-])c2)C1 (stereo not given) | 7% |  | 
13 | O=[N+]([O-])c1cc(NC2CCCN(Cc3ccccc3C(F)(F)F)C2)ccc1CO (stereo not given) | 75% | 40 | pKa [4]: 5.9; Activity [3]: 83%; logD [5]: 3.27
14 | Cn1cncc1CN1CCCC(Nc2ccc(CO)c([N+](=O)[O-])c2)C1 (stereo not given) | 20% |  | 
15 | O=[N+]([O-])c1cc(NC2CCN(Cc3ccccc3C(F)(F)F)CC2)ccc1CO | 20% |  | 
16 | O=[N+]([O-])c1cc(NC2CCN(Cc3ccc(OC(F)(F)F)cc3)CC2)ccc1CO | 97% | 14 | 

Row | Compound | Activity [1] | Activity [2] [%] | further results
17 | CC(C)N1CCC(Nc2ccc(CO)c([N+](=O)[O-])c2)C1 (stereo not given) | 40% |  | 
18 | O=[N+]([O-])c1cc(NC2CCCN(CCc3ccccc3)C2)ccc1CO (stereo not given) | 40% |  | 
19 | O=[N+]([O-])c1cc(NC2CCN(Cc3c[nH]c4ccccc34)C2)ccc1CO (stereo not given) | 85% |  | 
20 | O=[N+]([O-])c1cc(NC2CCN(Cc3ccccc3OC(F)(F)F)C2)ccc1CO (stereo not given) | 100% | <40 | 
21 | O=[N+]([O-])c1cc(NC2CCN(Cc3cccc(OC(F)(F)F)c3)C2)ccc1CO (stereo not given) | 60% |  | 
22 | CC(C)N1CCCC(Nc2ccc(CO)c([N+](=O)[O-])c2)C1 (stereo not given) | 10% |  | 
23 | O=[N+]([O-])c1cc(NC2CCCN(Cc3ccccc3OC(F)(F)F)C2)ccc1CO (stereo not given) | 84% | <40 | 
24 | Cn1cncc1CN1CCC(Nc2ccc(CO)c([N+](=O)[O-])c2)C1 (stereo not given) | 0% |  | 
25 | O=[N+]([O-])c1cc(NC2CCN(Cc3ccccc3F)C2)ccc1CO (stereo not given) | 30% |  | 
26 | O=[N+]([O-])c1cc(NC2CCN(Cc3ccc(OC(F)(F)F)cc3)C2)ccc1CO (stereo not given) | 87% | 40 | Activity [3]: 0%
27 | O=[N+]([O-])c1cc(NC2CCN(Cc3ccc(Cl)cc3Cl)C2)ccc1CO (stereo not given) | 17% |  | 
28 | O=[N+]([O-])c1cc(NC2CCN(CCc3ccccc3)C2)ccc1CO (stereo not given) | 7% |  | 
29 | O=[N+]([O-])c1cc(NC2CCCN(Cc3cccc(C(F)(F)F)c3)C2)ccc1CO (stereo not given) | 100% | 2 | Activity [3]: 2%
30 | O=[N+]([O-])c1cc(NC2CCNC2)ccc1CO (stereo not given) | 10% |  | 
31 | O=[N+]([O-])c1cc(NC2CCCN(Cc3c[nH]c4ccccc34)C2)ccc1CO (stereo not given) | 26% |  | 
32 | CC(C)NCC1CCc2cc(CO)c([N+](=O)[O-])cc2N1 (stereo not given) [OXAMNIQUINE] | 50 - 85% | 0 | Activity [3]: 0%
